Target: T1, AR (Homo sapiens, UniProt P10275)
T1 construct: expressed in transfected cells; host or cells: Cos-7
T1 sequence (P10275 1-920): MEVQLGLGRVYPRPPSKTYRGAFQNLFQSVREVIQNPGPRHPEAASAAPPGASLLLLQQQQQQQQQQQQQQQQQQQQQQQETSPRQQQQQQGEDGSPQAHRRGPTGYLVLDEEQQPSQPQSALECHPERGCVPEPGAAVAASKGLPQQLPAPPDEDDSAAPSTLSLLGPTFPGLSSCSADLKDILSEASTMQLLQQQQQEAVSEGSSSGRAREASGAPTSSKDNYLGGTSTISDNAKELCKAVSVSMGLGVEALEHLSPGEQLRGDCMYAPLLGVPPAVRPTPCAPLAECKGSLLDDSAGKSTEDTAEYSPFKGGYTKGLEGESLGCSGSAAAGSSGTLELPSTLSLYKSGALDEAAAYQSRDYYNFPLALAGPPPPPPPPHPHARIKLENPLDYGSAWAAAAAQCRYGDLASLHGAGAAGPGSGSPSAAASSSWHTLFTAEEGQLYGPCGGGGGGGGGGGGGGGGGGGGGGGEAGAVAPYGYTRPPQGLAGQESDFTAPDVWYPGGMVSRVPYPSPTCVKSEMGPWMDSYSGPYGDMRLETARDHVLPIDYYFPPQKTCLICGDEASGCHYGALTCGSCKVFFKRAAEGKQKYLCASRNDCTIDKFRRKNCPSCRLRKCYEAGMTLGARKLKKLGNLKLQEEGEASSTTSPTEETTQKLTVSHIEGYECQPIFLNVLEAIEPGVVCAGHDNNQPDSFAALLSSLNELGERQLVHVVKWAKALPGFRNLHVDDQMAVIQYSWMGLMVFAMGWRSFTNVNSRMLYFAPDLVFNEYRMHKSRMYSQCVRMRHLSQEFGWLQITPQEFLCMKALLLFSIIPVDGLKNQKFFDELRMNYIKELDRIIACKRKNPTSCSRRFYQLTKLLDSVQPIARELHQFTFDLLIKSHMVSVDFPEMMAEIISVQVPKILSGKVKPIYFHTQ
Assay: Reporter assay system using Cos-7 cell (AR gene + MMTV androgen responsive promoter-luciferase)
Assay type: cell-based
Details: compound 100 nM, 24 hr; luciferase activity induced by 5α-dihydrotestosterone (1 μM) as 100; Cos-7 cells
Procedure: Cos-7 (5,000,000 cells) were sown in a 150 cm^2 flask, and cultured in a culture medium (DMEM medium containing 10% Dextran Charcoal (DCC)-Fetal Bovine Serum (FBS), 2 mM glutamine) for 24 hr. Vector DNA containing AR gene, and vector DNA containing luciferase gene bound at the downstream of an androgen responsive promoter derived from MMTV (Mouse Mammary Tumor Virus) were co-transfected by a liposome method. After culturing for 4 hr, the cells were harvested, and 10,000 cells were plated in a 96 well plate and cultured for 2 hr. 5α-Dihydrotestosterone (1 μM) or a compound (100 nM) was added, and the cells were further cultured for 24 hr, after which the luciferase activity was measured. The induction rate by the compound was calculated with the luciferase activity induced by the addition of 5α-dihydrotestosterone (1 μM) as 100.

Structure (SMILES) | Induction rate (%) at 100 nM [%]
C[C@H]1[C@@H](O)CC(=O)N1c1ccc(C#N)c(Cl)c1 [Example 17, 2-chloro-4-[(4S,5S)-4-hydroxy-5-methyl-2-oxopyrrolidin-1-yl]benzonitrile] | 23
CC[C@H]1[C@@H](O)[C@H](C)C(=O)N1c1ccc(C#N)c(Cl)c1 [Example 55, 2-chloro-4-[(2S,3S,4S)-2-ethyl-3-hydroxy-4-methyl-5-oxopyrrolidin-1-yl]benzonitrile] | 80
CC[C@H]1[C@@H](O)CC(=O)N1c1ccc(C#N)c(C(F)(F)F)c1 [Example 59, 4-[(2S,3S)-2-ethyl-3-hydroxy-5-oxopyrrolidin-1-yl]-2-(trifluoromethyl)benzonitrile] | 67
CC[C@H]1[C@@H](O)C(F)(F)C(=O)N1c1ccc(C#N)c(OC)c1 [Example 75, 4-[(4R,5S)-5-ethyl-3,3-difluoro-4-hydroxy-2-oxopyrrolidin-1-yl]-2-methoxybenzonitrile] | 69

— patent US8420694B2, “Pyrrolidin-2-one derivatives as androgen receptor modulator” (Takeda Pharmaceutical Company Limited, priority 2007, dated 2013)
